The source of these data is US11230535B2, “CFTR regulators and methods of use thereof” (THE REGENTS OF THE UNIVERSITY OF CALIFORNIA, priority 2015, dated 2022).

For one data set, the system named is rat liver microsomes. Briefly: In vitro metabolic stability in rat liver microsomes. Format: in vitro ADME. Particulars: NADPH. The procedure:
In vitro metabolic stability. Compounds (each 5 μM) were incubated for specified times at 37° C. with rat liver microsomes (1 mg/ml; Sigma-Aldrich) in potassium phosphate buffer containing 1 mM NADPH, as described^14.
A general note: Microsomes from liver hold many membrane-bound enzymes, among them those of drug oxidation.

The next data set concerns the target human wild-type CFTR (Homo sapiens, UniProt P13569). Briefly: Cell-based plate reader (YFP iodide influx) assay of CFTR function. Particulars: for % Activation: FRT cells with YFP and wildtype CFTR, 125 nM forskolin. Details: expressed in transfected cells; host or cells: Fischer rat thyroid (FRT) cells stably co-expressing YFP-H148Q. The method, then:
The initiate rate of I^− influx was computed by determined using exponential regression. All compound plates contained negative controls (DMSO vehicle) and positive controls (20 μM forskolin).
High-throughput screening. […] The initiate rate of I^− influx was computed by determined using exponential regression. All compound plates contained negative controls (DMSO vehicle) and positive controls ([…] forskolin).
Platereader assays of chloride channel function. CFTR activity was assayed as described. […] I^− influx was measured in a plate reader with initial baseline read for 2 s and then for 12 s after rapid addition of an I^−-containing solution. TMEM16A activity was assayed similarly as described using FRT cells co-expressing YFP and TMEM16A. Activity of non-TMEM16A CaCC was assayed as described in HT-29 cells expressing YFP. In each assay initial rates of I^− influx were computed as a linear measure of channel function.

The next data set concerns mice. Description: Tear secretion / tear volume in mice (phenol red thread). It is filed as in vivo, mouse. The procedure: To measure unstimulated tear production, phenol red threads (Zone-Quick, Oasis Medical, Glendora, Calif., USA) were placed for 10 s in the lateral canthi of isofluorane-anesthetized mice using jewelers' forceps. Tear volume was measured as the length of thread wetting, as visualized under a dissecting microscope. Serial measurements were used to evaluate compound pharmacodynamics after application of 2-μL drops of compound formulations (50-100 μM compound in PBS containing 0.5% polysorbate and 0.5% DMSO) comparing to vehicle.
Tear secretion. To measure unstimulated tear production, phenol red threads (Zone-Quick, Oasis Medical, Glendora, Calif., USA) were placed for 10 s in the lateral canthi of isofluorane-anesthetized mice using jewelers' forceps. Tear volume was measured as the length of thread wetting, as visualized under a dissecting microscope. Serial measurements were used to evaluate compound pharmacodynamics after application of 2-[…]L drops of compound formulations (50-100 μM compound in PBS containing 0.5% polysorbate and 0.5% DMSO) comparing to vehicle.
Tear volume. Tear volume was measured using phenol red threads (Zone-Quick, Oasis Medical, Glendora, Calif.) as described. Threads were placed for 10 s in the lateral canthi of isofluorane-anesthetized mice using jewelers' forceps. Tear volume was determined from the length of thread wetting as visualized under a dissecting microscope. Serial measurements were done to evaluate compound pharmacodynamics after topical application of a single, 2.5-μL drop of ophthalmic formulation containing 0-100 μM of 1 or 12 in Ringer's solution with 0.3% carboxymethylcellulose (high viscosity, VWR, Radnor, Pa.), 0.015% benzalkonium chloride preservative, and 1% DMSO. Both eyes in each mouse received the same treatment to control for potential contralateral effects of a given treatment.

A further data set deals with loperamide-treated mice. Briefly: Loperamide-induced mouse model of constipation (3-h stool weight, pellet number, water content). The note with it: wildtype loperamide-treated mice.
[1] abbreviates: commercial analogs, read-out: EC50 (full-dose response assay, compounds >80% activation).

“Also recorded” adds a separate entry of the source. Where two headings read alike, the source gives them in different places.

Sequence of human wild-type CFTR (P13569 whole entry): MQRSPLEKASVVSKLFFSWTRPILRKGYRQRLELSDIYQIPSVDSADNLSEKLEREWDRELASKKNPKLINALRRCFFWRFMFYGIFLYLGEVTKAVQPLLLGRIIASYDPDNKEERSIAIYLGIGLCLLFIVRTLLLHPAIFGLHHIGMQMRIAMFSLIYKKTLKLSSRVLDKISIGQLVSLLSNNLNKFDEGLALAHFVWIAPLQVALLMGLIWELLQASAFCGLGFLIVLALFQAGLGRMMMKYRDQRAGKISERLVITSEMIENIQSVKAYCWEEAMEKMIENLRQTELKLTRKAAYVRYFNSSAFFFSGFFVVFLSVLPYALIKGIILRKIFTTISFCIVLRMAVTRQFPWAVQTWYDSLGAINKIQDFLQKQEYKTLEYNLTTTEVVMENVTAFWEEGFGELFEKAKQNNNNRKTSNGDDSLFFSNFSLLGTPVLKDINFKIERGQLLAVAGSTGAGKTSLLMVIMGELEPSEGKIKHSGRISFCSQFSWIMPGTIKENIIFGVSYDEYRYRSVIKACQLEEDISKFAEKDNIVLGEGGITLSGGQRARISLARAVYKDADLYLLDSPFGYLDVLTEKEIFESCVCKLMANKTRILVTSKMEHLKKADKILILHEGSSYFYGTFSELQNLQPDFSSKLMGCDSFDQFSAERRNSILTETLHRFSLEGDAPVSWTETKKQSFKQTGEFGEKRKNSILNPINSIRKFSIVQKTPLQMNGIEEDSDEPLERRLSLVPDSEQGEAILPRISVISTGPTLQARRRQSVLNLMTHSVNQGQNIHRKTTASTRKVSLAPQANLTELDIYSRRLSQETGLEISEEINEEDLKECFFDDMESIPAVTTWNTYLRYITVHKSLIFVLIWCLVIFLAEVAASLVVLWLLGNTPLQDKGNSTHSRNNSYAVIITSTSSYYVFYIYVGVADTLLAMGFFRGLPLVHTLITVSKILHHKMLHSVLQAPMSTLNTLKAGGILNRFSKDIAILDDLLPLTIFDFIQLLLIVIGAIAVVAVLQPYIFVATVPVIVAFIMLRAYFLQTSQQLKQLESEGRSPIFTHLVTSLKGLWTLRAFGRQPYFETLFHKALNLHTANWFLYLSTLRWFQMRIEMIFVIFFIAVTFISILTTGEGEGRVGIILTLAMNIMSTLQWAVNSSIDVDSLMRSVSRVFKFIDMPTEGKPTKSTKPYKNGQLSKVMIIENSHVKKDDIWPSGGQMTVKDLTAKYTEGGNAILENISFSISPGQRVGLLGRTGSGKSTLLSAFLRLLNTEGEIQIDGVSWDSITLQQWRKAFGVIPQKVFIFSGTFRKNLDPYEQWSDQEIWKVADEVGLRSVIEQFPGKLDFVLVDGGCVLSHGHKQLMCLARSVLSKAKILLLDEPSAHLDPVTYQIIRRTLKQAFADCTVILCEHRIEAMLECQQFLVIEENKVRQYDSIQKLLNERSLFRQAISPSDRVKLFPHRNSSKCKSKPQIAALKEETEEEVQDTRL

Consider `CCN(CC)c1nc(Nc2ccc3ncoc3c2)nc(OC(C(F)(F)F)C(F)(F)F)n1` [6j, N′-(1,3-Benzoxazol-6-yl)-N,N-diethyl-6-[(1,1,1,3,3,3-hexafluoropropan-2-yl)oxy]-1,3,5-triazine-2,4-diamine], for which, in the data set on rat liver microsomes (5 μM, rat hepatic microsomes), the “original compound remaining at 60 min” value is given as around 60%. Further, the “metabolic stability in hepatic microsomes, in words” value in the data set with rat liver microsomes is “metabolized slowly; also recorded: substantially greater in vitro metabolic stability than 1 or 12”. Further, the EC50 – broadly, the concentration giving half of the maximal effect – at human wild-type CFTR (bicyclic aniline analogs, read-out: EC50) was 150 nM.

For the compound `CC(C)Cn1c(=O)n(C)c(=O)c2[nH]cnc21` [IBMX, 3-isobutyl-1-methylxanthine, reference compound], in the data set with mice (single topical dose, 30 min), the “basal tear secretion at 30 min” value was “substantially increased”. In the data set on mice (single topical dose, after 2 hours), the “effect on tear secretion after 2 hours” value was “undetectable”.

Turning to `CCC(C)Nc1nc(Nc2ccc([N+](=O)[O-])cc2)nc(OC(C(F)(F)F)C(F)(F)F)n1` (centres unmarked) [K056], the “% Activation” value on human wild-type CFTR (commercial analogs) is reported as 38%.

Turning to `FC(F)(F)COc1nc(N2CCCCC2)nc(N(c2ccccc2)c2ccccc2)n1` [K057], the “% Activation” value on human wild-type CFTR (commercial analogs) turned out to be 28%.

On to `C=CCNc1nc(OC(C(F)(F)F)C(F)(F)F)nc(N(c2ccccc2)c2ccccc2)n1` [K058], for which the “% Activation” value on human wild-type CFTR (commercial analogs) is 37%.

Regarding `C=CCNc1nc(Nc2cccc([N+](=O)[O-])c2)nc(OC(C(F)(F)F)C(F)(F)F)n1` [K059], at human wild-type CFTR (commercial analogs), the “% Activation” value came to 90%. On human wild-type CFTR (setting [1]), the EC50 worked out at 750 nM.

For `COc1ccc(Nc2nc(NC3CCCCC3)nc(OC(C(F)(F)F)C(F)(F)F)n2)cc1` [K060], the “% Activation” value on human wild-type CFTR (commercial analogs) is reported as 38%.

In the case of `Cc1ccc(Nc2nc(OC(C(F)(F)F)C(F)(F)F)nc(N3CCCCC3)n2)cc1` [K061], the “% Activation” value at human wild-type CFTR (commercial analogs) was found to be 31%.

For the compound `Fc1ccc(Nc2nc(OC(C(F)(F)F)C(F)(F)F)nc(N3CCCCC3)n2)cc1` [K062], the “% Activation” value at human wild-type CFTR (commercial analogs) is 49%.

For `FC(F)(F)C(Oc1nc(N2CCCCCC2)nc(N(c2ccccc2)c2ccccc2)n1)C(F)(F)F` [K063], on human wild-type CFTR (commercial analogs), the “% Activation” value turned out to be 41%.

`CC(=O)N1CCN(c2nc(Nc3ccccc3C(=O)c3ccccc3)nc(OC(C(F)(F)F)C(F)(F)F)n2)CC1` [K064]: the “% Activation” value on human wild-type CFTR (commercial analogs) is 40%.

Consider `FC(F)(F)C(Oc1nc(Nc2ccc(Cl)cc2)nc(N2CCOCC2)n1)C(F)(F)F` [K065], for which the “% Activation” value at human wild-type CFTR (commercial analogs) is 38%.

Turning to `CCOc1nc(Nc2ccc(-c3nc4ccccc4o3)cc2)nc(N2CCOCC2)n1` [K066], the “% Activation” value at human wild-type CFTR (commercial analogs) stood at 87%. The EC50 at human wild-type CFTR (setting [1]) amounted to 2900 nM.

As for `C=CCNc1nc(Nc2ccc(-c3nc4ccccc4o3)cc2)nc(OCC)n1` [K067], the “% Activation” value on human wild-type CFTR (commercial analogs) amounted to 49%.

`CCOc1nc(NCCO)nc(Nc2ccc(-c3nc4ccccc4o3)cc2)n1` [K068]: the “% Activation” value at human wild-type CFTR (commercial analogs) is 84%. Moreover, the EC50 on human wild-type CFTR (setting [1]) was 4100 nM.

In the case of `FC(F)(F)COc1nc(Nc2ccc(OC(F)(F)Cl)cc2)nc(N2CCOCC2)n1` [K069], the “% Activation” value at human wild-type CFTR (commercial analogs) turned out to be 37%.

As to `FC(F)(F)COc1nc(Nc2ccc(OC(F)(F)Cl)cc2)nc(N2CCCCC2)n1` [K070], the “% Activation” value at human wild-type CFTR (commercial analogs) is listed as 28%.

`CN1CCN(c2nc(Nc3ccc(OC(F)(F)Cl)cc3)nc(OCC(F)(F)F)n2)CC1` [K071]: on human wild-type CFTR (commercial analogs), the “% Activation” value stood at 25%.

For the compound `FC(F)(F)COc1nc(Nc2ccc(OC(F)(F)F)cc2)nc(N2CCOCC2)n1` [K072], the “% Activation” value at human wild-type CFTR (commercial analogs) was found to be 31%.

Take `FC(F)(F)COc1nc(Nc2ccc(OC(F)(F)F)cc2)nc(N2CCCCC2)n1` [K073]: at human wild-type CFTR (commercial analogs), the “% Activation” value is recorded as 19%.

For the compound `CN1CCN(c2nc(Nc3ccc(OC(F)(F)F)cc3)nc(OCC(F)(F)F)n2)CC1` [K074], the “% Activation” value on human wild-type CFTR (commercial analogs) amounted to 25%.

Turning to `CN(C)c1nc(Nc2ccc(OC(F)(F)Cl)cc2)nc(OCC(F)(F)F)n1` [K075], at human wild-type CFTR (commercial analogs), the “% Activation” value is 32%.

Regarding `C=CCNc1nc(Nc2ccc(OC(F)(F)Cl)cc2)nc(OCC(F)(F)F)n1` [K076], the “% Activation” value at human wild-type CFTR (commercial analogs) turned out to be 46%.

Turning to `C=CCNc1nc(Nc2ccc(OC(F)(F)Cl)cc2)nc(OCC(F)(F)F)n1` [K077], at human wild-type CFTR (commercial analogs), the “% Activation” value is 29%.

With `OCCNc1nc(Nc2ccc(OC(F)(F)Cl)cc2)nc(OCC(F)(F)F)n1` [K078], the “% Activation” value at human wild-type CFTR (commercial analogs) is given as 28%.

For the compound `FC(F)(F)COc1nc(Nc2ccc(OC(F)(F)F)cc2)nc(NC2CC2)n1` [K079], the “% Activation” value at human wild-type CFTR (commercial analogs) came to 40%.

Take `FC(F)(F)COc1nc(NCc2ccccc2)nc(Nc2ccc(OC(F)(F)Cl)cc2)n1` [K080]: the “% Activation” value at human wild-type CFTR (commercial analogs) is reported as 26%.

Turning to `FC(F)(F)COc1nc(Nc2ccc(OC(F)(F)Cl)cc2)nc(N2CCN(c3cccc(Cl)c3)CC2)n1` [K081], the “% Activation” value at human wild-type CFTR (commercial analogs) is 24%.

For `FC(F)(F)COc1nc(NCc2ccccc2)nc(Nc2ccc(OC(F)(F)F)cc2)n1` [K082], the “% Activation” value at human wild-type CFTR (commercial analogs) is recorded as 28%.

Turning to `FC(F)(F)COc1nc(Nc2ccc(OC(F)(F)Cl)cc2)nc(NC2CC2)n1` [K083], the “% Activation” value on human wild-type CFTR (commercial analogs) is on record as 54%.

Turning to `CCC(C)Nc1nc(Nc2ccc(OC(F)(F)Cl)cc2)nc(OCC(F)(F)F)n1` (centres unmarked) [K084], the “% Activation” value on human wild-type CFTR (commercial analogs) was found to be 22%.

Turning to `CCCCNc1nc(Nc2ccc(OC(F)(F)Cl)cc2)nc(OCC(F)(F)F)n1` [K085], the “% Activation” value at human wild-type CFTR (commercial analogs) is reported as 25%.

For the compound `CCC(C)Nc1nc(Nc2ccc(OC(F)(F)F)cc2)nc(OCC(F)(F)F)n1` (centres unmarked) [K086], the “% Activation” value on human wild-type CFTR (commercial analogs) is reported as 20%.

As for `CN(C)c1nc(Nc2ccc(Cl)cc2)nc(OCCNC(=O)c2ccc(Cl)cc2)n1` [K087], the “% Activation” value on human wild-type CFTR (commercial analogs) is on record as 47%.

`CCCCCCNc1nc(Nc2ccc([N+](=O)[O-])cc2)nc(OCC)n1` [K088]: the “% Activation” value on human wild-type CFTR (commercial analogs) turned out to be 33%.

Regarding `CCOc1nc(NCCN2CCOCC2)nc(Nc2ccc([N+](=O)[O-])cc2)n1` [K090], the “% Activation” value on human wild-type CFTR (commercial analogs) amounted to 52%.

Take `Cc1cc(I)ccc1Nc1nc(NCCN2CCOCC2)nc(OCC(F)(F)F)n1` [K091]: the “% Activation” value at human wild-type CFTR (commercial analogs) was 43%.

With `CNc1nc(Nc2ccccc2)nc(OC(C(F)(F)F)C(F)(F)F)n1` [compound 11], on human wild-type CFTR (N-methyl-N′-phenyl-1,3,5-triazine diamine analogs, read-out: EC50), the EC50 came out at 120 nM.

For `Cn1c(=O)c(-c2cc([N+](=O)[O-])ccc2N)nc2ccccc21` [inactive chemical analog of CFTRact-J027, reference compound], the “effect of inactive analog on stool parameters” value in the data set with loperamide-treated mice is “nor was an inactive chemical analog of CFTRact-J027 effective”.

As for cholera toxin, in the data set on mice (mouse, in vivo), the “basal tear secretion at 30 min” value is “substantially increased” and the “effect on tear secretion after 2 hours” value was “undetectable”.
